Measurements as given in patent US9302999B2, “Substituted triazoles as herbicides” (E. I. DU PONT DE NEMOURS AND COMPANY, priority 2012, dated 2016).

Tests used:
Format in all cases: in vivo
[1] = test system: sedge, umbrella (small-flower umbrella sedge, Cyperus difformis); experiment: Test C flooded paddy test: sedge, umbrella; conditions: scale 0 to 100 (0 no effect, 100 complete control)
Description: (§1) Plant species in the flooded paddy test consisted of rice (Oryza sativa), sedge, umbrella (small-flower umbrella sedge, Cyperus difformis), ducksalad (Heteranthera limosa) and barnyardgrass (Echinochloa crus-galli) grown to the 2-leaf stage for testing. At time of treatment, test pots were flooded to 3 cm above the soil surface, treated by application of test compounds directly to the paddy water, and then maintained at that water depth for the duration of the test.
(§2) Treated plants and controls were maintained in a greenhouse for 13 to 15 days, after which time all species were compared to controls and visually evaluated. Plant response ratings, summarized in Table C, are based on a scale of 0 to 100 where 0 is no effect and 100 is complete control. A dash (-) response means no test result.

[2] = test system: barnyardgrass (Echinochloa crus-galli); experiment: Test A pre-/postemergence: barnyardgrass; conditions: for Barnyardgrass plant response rating: Postemergence; for Plant response rating, Barnyardgrass: Preemergence
Outline: (§3)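 Plants in loam–sand blend were treated with test chemicals in non-phytotoxic solvent with surfactant, either as preemergence directed soil spray or postemergence at 2–10 cm, one- to two-leaf stage. After about ten days in greenhouse, injury was rated visually against untreated controls on a 0–100 scale (100 = complete control).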

[3] = test system: wheat (Triticum aestivum); experiment: Test A pre-/postemergence: wheat; conditions: for Wheat plant response rating: Postemergence; for Plant response rating, Wheat: Preemergence
Outline: as §3

[4] = test system: pigweed (Amaranthus retroflexus); experiment: Test A pre-/postemergence: pigweed; conditions: for Pigweed plant response rating: Postemergence; for Plant response rating, Pigweed: Preemergence
Outline: as §3

[5] = test system: morningglory (Ipomoea spp.); experiment: Test A pre-/postemergence: morningglory; conditions: for Morningglory plant response rating: Postemergence; for Plant response rating, Morningglory: Preemergence
Outline: as §3

rice (Oryza sativa) = experiment: Test C flooded paddy test: rice; conditions: scale 0 to 100 (0 no effect, 100 complete control)
Description: as §1, §2

[6] = test system: velvetleaf (Abutilon theophrasti); experiment: Test A pre-/postemergence: velvetleaf; conditions: for Velvetleaf plant response rating: Postemergence; for Plant response rating, Velvetleaf: Preemergence
Outline: as §3

[7] = test system: ducksalad (Heteranthera limosa); experiment: Test C flooded paddy test: ducksalad; conditions: scale 0 to 100 (0 no effect, 100 complete control)
Description: as §1, §2

[8] = test system: foxtail, giant (giant foxtail, Setaria faberii); experiment: Test A pre-/postemergence: foxtail, giant; conditions: for Foxtail, Giant plant response rating: Postemergence; for Plant response rating, Foxtail, Giant: Preemergence
Outline: as §3

[9] = test system: crabgrass, large (large crabgrass, Digitaria sanguinalis); experiment: Test A pre-/postemergence: crabgrass, large; conditions: for Crabgrass, Large plant response rating: Postemergence; for Plant response rating, Crabgrass, Large: Preemergence
Outline: as §3

corn (Zea mays) = experiment: Test A pre-/postemergence: corn; conditions: for Corn plant response rating: Postemergence; for Plant response rating, Corn: Preemergence
Outline: as §3

[10] = test system: barnyardgrass (Echinochloa crus-galli); experiment: Test C flooded paddy test: barnyardgrass; conditions: scale 0 to 100 (0 no effect, 100 complete control)
Description: as §1, §2

[11] = Flood (flooded paddy test), 62 g ai/ha, visual rating after 13 to 15 days
[12] = Flood (flooded paddy test), 125 g ai/ha, visual rating after 13 to 15 days
[13] = Flood (flooded paddy test), 250 g ai/ha, visual rating after 13 to 15 days
[14] = 125 g ai/ha, 0 to 100 scale, 0 is no effect, 100 is complete control
[15] = 500 g ai/ha, visual rating on 0 to 100 scale (0 no effect, 100 complete control), approximately ten days
[16] = 125 g ai/ha, 0 to 100 scale (0 no effect, 100 complete control)
[17] = 500 g ai/ha, 0 to 100 scale, 0 is no effect, 100 is complete control

Cc1nn(-c2ccc(C(F)(F)F)cn2)nc1Cn1ccc(C(F)(F)F)n1 [Compound 7]
Plant response rating, Sedge, Umbrella [1, 11]: 40 | Plant response rating, Sedge, Umbrella [1, 12]: 50 | Plant response rating, Sedge, Umbrella [1, 13]: 85 | Plant response rating, Sedge, Umbrella ([1]; Flood, 31 g ai/ha): 30 | Barnyardgrass plant response rating [2, 14]: 30 | Barnyardgrass plant response rating [2, 15]: 90 | Plant response rating, Barnyardgrass [2, 16]: 40 | Plant response rating, Barnyardgrass [2, 17]: 100 | Wheat plant response rating [3, 14]: 0 | Wheat plant response rating [3, 15]: 20 | Plant response rating, Wheat [3, 16]: 0 | Plant response rating, Wheat [3, 17]: 0 | Pigweed plant response rating [4, 14]: 100 | Pigweed plant response rating [4, 15]: 100 | Plant response rating, Pigweed [4, 16]: 100 | Plant response rating, Pigweed [4, 17]: 100 | Morningglory plant response rating [5, 14]: 90 | Morningglory plant response rating [5, 15]: 90 | Plant response rating, Morningglory [5, 16]: 30 | Plant response rating, Morningglory [5, 17]: 80 | Plant response rating, Rice (rice (Oryza sativa); [11]): 0 | Plant response rating, Rice (rice (Oryza sativa); [12]): 0 | Plant response rating, Rice (rice (Oryza sativa); [13]): 15 | Plant response rating, Rice (rice (Oryza sativa); Flood, 31 g ai/ha): 0 | Velvetleaf plant response rating [6, 14]: 30 | Velvetleaf plant response rating [6, 15]: 70 | Plant response rating, Velvetleaf [6, 16]: 30 | Plant response rating, Velvetleaf [6, 17]: 60 | Plant response rating, Ducksalad [7, 11]: 0 | Plant response rating, Ducksalad [7, 12]: 30 | Plant response rating, Ducksalad [7, 13]: 70 | Plant response rating, Ducksalad ([7]; Flood, 31 g ai/ha): 0 | Foxtail, Giant plant response rating [8, 14]: 50 | Foxtail, Giant plant response rating [8, 15]: 90 | Plant response rating, Foxtail, Giant [8, 16]: 90 | Plant response rating, Foxtail, Giant [8, 17]: 100 | Crabgrass, Large plant response rating [9, 14]: 70 | Crabgrass, Large plant response rating [9, 15]: 90 | Plant response rating, Crabgrass, Large [9, 16]: 100 | Plant response rating, Crabgrass, Large [9, 17]: 100 | Corn plant response rating (corn (Zea mays); [14]): 10 | Corn plant response rating (corn (Zea mays); [15]): 50 | Plant response rating, Corn (corn (Zea mays); [16]): 0 | Plant response rating, Corn (corn (Zea mays); [17]): 30 | Plant response rating, Barnyardgrass [10, 11]: 0 | Plant response rating, Barnyardgrass [10, 12]: 0 | Plant response rating, Barnyardgrass [10, 13]: 20 | Plant response rating, Barnyardgrass ([10]; Flood, 31 g ai/ha): 0

Cc1nn(-c2ccc(C(F)(F)F)cc2)nc1Cn1ccc(C(F)(F)C(F)(F)F)n1 [Compound 12]
Plant response rating, Sedge, Umbrella [1, 11]: 50 | Plant response rating, Sedge, Umbrella [1, 13]: 80 | Barnyardgrass plant response rating [2, 14]: 30 | Barnyardgrass plant response rating [2, 15]: 80 | Plant response rating, Barnyardgrass [2, 16]: 30 | Plant response rating, Barnyardgrass [2, 17]: 80 | Wheat plant response rating [3, 14]: 10 | Wheat plant response rating [3, 15]: 30 | Plant response rating, Wheat [3, 16]: 0 | Plant response rating, Wheat [3, 17]: 0 | Pigweed plant response rating [4, 14]: 100 | Pigweed plant response rating [4, 15]: 100 | Plant response rating, Pigweed [4, 16]: 80 | Plant response rating, Pigweed [4, 17]: 100 | Morningglory plant response rating [5, 14]: 70 | Morningglory plant response rating [5, 15]: 100 | Plant response rating, Morningglory [5, 16]: 10 | Plant response rating, Morningglory [5, 17]: 40 | Plant response rating, Rice (rice (Oryza sativa); [11]): 0 | Plant response rating, Rice (rice (Oryza sativa); [13]): 25 | Velvetleaf plant response rating [6, 14]: 70 | Velvetleaf plant response rating [6, 15]: 100 | Plant response rating, Velvetleaf [6, 16]: 60 | Plant response rating, Velvetleaf [6, 17]: 70 | Plant response rating, Ducksalad [7, 11]: 60 | Plant response rating, Ducksalad [7, 13]: 70 | Foxtail, Giant plant response rating [8, 14]: 50 | Foxtail, Giant plant response rating [8, 15]: 70 | Plant response rating, Foxtail, Giant [8, 16]: 80 | Plant response rating, Foxtail, Giant [8, 17]: 100 | Crabgrass, Large plant response rating [9, 14]: 50 | Crabgrass, Large plant response rating [9, 15]: 90 | Plant response rating, Crabgrass, Large [9, 16]: 90 | Plant response rating, Crabgrass, Large [9, 17]: 100 | Corn plant response rating (corn (Zea mays); [14]): 20 | Corn plant response rating (corn (Zea mays); [15]): 30 | Plant response rating, Corn (corn (Zea mays); [16]): 0 | Plant response rating, Corn (corn (Zea mays); [17]): 10 | Plant response rating, Barnyardgrass [10, 11]: 40 | Plant response rating, Barnyardgrass [10, 13]: 60
